Experimental data as given in ChEMBL document CHEMBL5223155, “Design, synthesis, and evaluation of pyrido.[3,4-b]pyrazin-2(1H)-one derivatives as potent FLT3 inhibitors” (Bioorg Med Chem, 2023).
pIC50: −log10 of the molar value. The source made the active and inactive calls. The calls are words filed in the database; no cut-off is given here.

How the values were obtained:
[1] = biological target: T1, Receptor-type tyrosine-protein kinase FLT3 (Homo sapiens, UniProt P36888)
T1 sequence (P36888 whole entry): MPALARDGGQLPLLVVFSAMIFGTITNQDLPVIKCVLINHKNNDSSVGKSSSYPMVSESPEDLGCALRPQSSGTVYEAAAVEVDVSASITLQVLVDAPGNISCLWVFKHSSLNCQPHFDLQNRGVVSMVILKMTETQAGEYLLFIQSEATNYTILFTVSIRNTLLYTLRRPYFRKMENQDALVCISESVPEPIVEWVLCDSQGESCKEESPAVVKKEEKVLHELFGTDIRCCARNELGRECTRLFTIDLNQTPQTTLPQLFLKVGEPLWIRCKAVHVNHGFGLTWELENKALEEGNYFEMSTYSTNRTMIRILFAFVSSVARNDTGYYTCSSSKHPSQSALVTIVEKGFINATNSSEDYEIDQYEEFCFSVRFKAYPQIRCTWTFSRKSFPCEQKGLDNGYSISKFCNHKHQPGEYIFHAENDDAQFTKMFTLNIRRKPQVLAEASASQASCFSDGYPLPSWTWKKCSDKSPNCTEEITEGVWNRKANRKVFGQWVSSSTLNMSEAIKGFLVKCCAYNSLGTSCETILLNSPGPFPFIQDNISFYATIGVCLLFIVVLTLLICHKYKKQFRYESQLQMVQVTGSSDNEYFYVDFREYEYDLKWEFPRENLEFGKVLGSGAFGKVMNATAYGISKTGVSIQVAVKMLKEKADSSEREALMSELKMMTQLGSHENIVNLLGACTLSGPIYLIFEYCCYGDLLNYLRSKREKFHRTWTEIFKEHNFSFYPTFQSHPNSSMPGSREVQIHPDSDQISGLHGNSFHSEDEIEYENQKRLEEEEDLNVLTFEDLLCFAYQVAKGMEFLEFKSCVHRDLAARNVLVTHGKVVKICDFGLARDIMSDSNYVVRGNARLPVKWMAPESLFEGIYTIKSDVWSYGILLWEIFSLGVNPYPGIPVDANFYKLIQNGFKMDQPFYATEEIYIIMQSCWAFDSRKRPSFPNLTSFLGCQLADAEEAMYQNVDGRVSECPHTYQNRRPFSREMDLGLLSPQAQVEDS
Description: Inhibition of human wild type FLT3 using TK peptide as substrate incubated for 1 hr in presence of ATP by HTRF assay

[2] = biological target: Receptor-type tyrosine-protein kinase FLT3 (Homo sapiens, UniProt P36888, D835Y)
Description: Inhibition of human FLT3 D835Y mutant using TK peptide as substrate incubated for 1 hr in presence of ATP by HTRF assay

MOLM-13 = test: Antiproliferative activity against human MOLM-13 cells assessed as inhibition of cell growth incubated for 72 hrs by MTS assay; assay type: functional, cell-based; details: MOLM-13, 72 h
MV4-11 = test: cells; details: Homo sapiens, MV4-11, 72 h
Description: Antiproliferative activity against human MV4-11 cells assessed as inhibition of cell growth incubated for 72 hrs by MTS assay

BaF3 [3] = test: cells; details: Mus musculus, BaF3, 72 h
Description: Antiproliferative activity against mouse BaF3 cells harboring FLT3-ITD mutant assessed as inhibition of cell growth incubated for 72 hrs by MTS assay

BaF3 [4] = test: cells; details: Mus musculus, BaF3, 72 h; remark: listed apart in the source
Description: Antiproliferative activity against mouse BaF3 cells harboring FLT3-F691L mutant assessed as inhibition of cell growth incubated for 72 hrs by MTS assay

BaF3 [5] = test: cells; details: Mus musculus, BaF3, 72 h; remark: listed apart in the source
Description: Antiproliferative activity against mouse BaF3 cells harboring FLT3-D835F mutant assessed as inhibition of cell growth incubated for 72 hrs by MTS assay

BaF3 [6] = test: cells; details: Mus musculus, BaF3, 72 h; remark: listed apart in the source
Description: Antiproliferative activity against mouse BaF3 cells harboring FLT3-D835V mutant assessed as inhibition of cell growth incubated for 72 hrs by MTS assay

BaF3 [7] = test: cells; details: Mus musculus, BaF3, 72 h; remark: listed apart in the source
Description: Antiproliferative activity against mouse BaF3 cells harboring FLT3-ITD/D835Y mutant assessed as inhibition of cell growth incubated for 72 hrs by MTS assay

[8] = Metabolic stability in ICR/CD mouse liver microsomes assessed as compound remaining at 100 uM preincubated with NADPH for 5 mins followed by compound addition and measured upto 90 mins by LC-MS/MS method; assay type: ADME, Microsome; details: time < 95 min, read-out: Stability
Z-138 = test: Antiproliferative activity against human Z138 cells assessed as inhibition of cell growth incubated for 72 hrs by MTS assay; assay type: functional, cell-based; details: Z-138, 72 h
HCC1954 = test: Antiproliferative activity against human HCC1954 cells assessed as inhibition of cell growth incubated for 72 hrs by MTS assay; assay type: functional, cell-based; details: HCC1954, 72 h
[9] = Antiproliferative activity against human MINO cells assessed as inhibition of cell growth incubated for 72 hrs by MTS assay; assay type: functional, cell-based
MM1.S = test: Antiproliferative activity against human MM1.S cells assessed as inhibition of cell growth incubated for 72 hrs by MTS assay; assay type: functional, cell-based
OCI-AML-3 = test: Antiproliferative activity against human OCI-AML-3 cells assessed as inhibition of cell growth incubated for 72 hrs by MTS assay; assay type: functional, cell-based; details: OCI-AML-3, 72 h
MOLT-4 = test: Antiproliferative activity against human MOLT-4 cells assessed as inhibition of cell growth incubated for 72 hrs by MTS assay; assay type: functional, cell-based; details: MOLT-4, 72 h
KG-1 = test: Antiproliferative activity against human KG-1 cells assessed as inhibition of cell growth incubated for 72 hrs by MTS assay; assay type: functional, cell-based; details: KG-1, 72 h
Rec1 = test: Antiproliferative activity against human REC1 cells assessed as inhibition of cell growth incubated for 72 hrs by MTS assay; assay type: functional, cell-based; details: Rec1, 72 h
JeKo-1 = test: Antiproliferative activity against human JeKo-1 cells assessed as inhibition of cell growth incubated for 72 hrs by MTS assay; assay type: functional, cell-based; details: JeKo-1, 72 h
HL-60 = test: Antiproliferative activity against human HL-60 cells assessed as inhibition of cell growth incubated for 72 hrs by MTS assay; assay type: functional, cell-based; details: HL-60, 72 h
RS4-11 = test: Antiproliferative activity against human RS4-11 cells assessed as inhibition of cell growth incubated for 72 hrs by MTS assay; assay type: functional, cell-based; details: RS4-11, 72 h
WI-38 = test: Antiproliferative activity against human WI-38 cells assessed as inhibition of cell growth incubated for 72 hrs by MTS assay; assay type: functional, cell-based; details: WI-38, 72 h
[10] = Antiproliferative activity against human PBMCs assessed as inhibition of cell growth incubated for 72 hrs by MTS assay; assay type: toxicity, cell-based, PBMC
[11] = biological target: Receptor-type tyrosine-protein kinase FLT3 (Homo sapiens) (UniProt P36888); test: Inhibition of FLT3 in human MV4-11 cells assessed as reduction in FLT3 autophosphorylation at Tyr589/591 at 10 to 1000 nM by Western blotting analysis; assay type: cell-based; details: dose 10-1000 nM
[12] = biological target: Receptor-type tyrosine-protein kinase FLT3 (Homo sapiens) (UniProt P36888); test: Inhibition of FLT3 in human MV4-11 cells assessed as reduction in STAT5 phosphorylation by Western blotting analysis; assay type: cell-based; details: dose 10-1000 nM
[13] = biological target: Receptor-type tyrosine-protein kinase FLT3 (Homo sapiens) (UniProt P36888); test: Inhibition of FLT3 in human MV4-11 cells assessed as reduction in AKT phosphorylation by Western blotting analysis; assay type: cell-based; details: dose 10-1000 nM
[14] = biological target: Receptor-type tyrosine-protein kinase FLT3 (Homo sapiens) (UniProt P36888); test: Inhibition of FLT3 in human MV4-11 cells assessed as reduction in ERK phosphorylation by Western blotting analysis; assay type: cell-based; details: dose 10-1000 nM
[15] = biological target: Receptor-type tyrosine-protein kinase FLT3 (Homo sapiens) (UniProt P36888); test: Inhibition of FLT3 in human MV4-11 cells assessed as reduction in STAT5 phosphorylation at 100 nM by Western blotting analysis; assay type: cell-based
[16] = biological target: Receptor-type tyrosine-protein kinase FLT3 (Homo sapiens) (UniProt P36888); test: Inhibition of FLT3 in human MV4-11 cells assessed as reduction in ERK phosphorylation at 100 nM by Western blotting analysis; assay type: cell-based

SMILES: Cc1cc(Nc2cc3c(cn2)ncc(=O)n3-c2ccc(N)cc2)ncc1N1CCOCC1
- pIC50 [1]: < 8.00
- pIC50 [2]: 4.93

SMILES: Cc1cc(Nc2cc3c(cn2)ncc(=O)n3-c2ccc(N)cc2)ncc1N1CCNCC1
- pIC50 [1]: 6.99
- pIC50 [2]: 7.47
- pIC50 (MOLM-13): 6.36
- pIC50 (MV4-11): 7.59
- pIC50 (BaF3 [3]): 5.50
- pIC50 (BaF3 [4]): 6.06
- pIC50 (BaF3 [5]): 5.51
- pIC50 (BaF3 [6]): 6.79
- pIC50 (BaF3 [7]): 6.20

SMILES: CN1CCN(c2ccc(Nc3cc4c(cn3)ncc(=O)n4-c3ccc(N(C)C)cc3)nc2)CC1
- pIC50 [1]: 6.13
- pIC50 [2]: 6.20

SMILES: Cc1cc(Nc2cc3c(cn2)ncc(=O)n3-c2ccc(N)cc2)ncc1N1CCSCC1
- pIC50 [1]: 6.73
- pIC50 [2]: 7.05
- pIC50 (MOLM-13): 6.06
- pIC50 (MV4-11): 7.01

SMILES: Cc1cc(Nc2cc3c(cn2)ncc(=O)n3-c2ccc(N)cc2)ncc1NC1CCN(C)CC1
- pIC50 [1]: 6.36
- pIC50 [2]: 6.46

SMILES: Cc1cc(Nc2cc3c(cn2)ncc(=O)n3-c2ccc(N)cc2)ncc1N1CCC(F)(F)CC1
- pIC50 [1]: 6.54
- pIC50 [2]: 6.92

SMILES: CC(=O)N1CCN(c2cnc(Nc3cc4c(cn3)ncc(=O)n4-c3ccc(N)cc3)cc2C)CC1
- pIC50 [1]: 6.78
- pIC50 [2]: 6.91

SMILES: CN1CCN(c2ccc(Nc3ccc4ncc(=O)n(-c5ccc(N)cc5)c4n3)nc2)CC1
- pIC50 [1]: 5.60
- pIC50 [2]: 5.18

SMILES: Cc1cc(Nc2cc3c(cn2)ncc(=O)n3-c2ccc(N)cc2)ncc1N1CCC(N)CC1
- pIC50 [1]: 7.14
- pIC50 [2]: 7.38
- pIC50 (MOLM-13): 6.19
- pIC50 (MV4-11): 7.28

SMILES: CN1CCN(c2ccc(Nc3cc4c(cn3)ncc(=O)n4-c3ccc(N)cc3)cc2)CC1
- pIC50 [1]: 5.66
- pIC50 [2]: 5.55

SMILES: Cc1cc(Nc2cc3c(cn2)ncc(=O)n3-c2ccc(N)cc2)ncc1N1CCN(C(C)C)CC1
- pIC50 [1]: 7.21
- pIC50 [2]: 7.52
- pIC50 (MOLM-13): 6.88
- remaining at 1.5 h, 100 µM [8]: > 80%
- pIC50 (Z-138): 5.84
- pIC50 (HCC1954): 4.94
- pIC50 [9]: 5.96
- pIC50 (MM1.S): 5.80
- pIC50 (OCI-AML-3): 5.19
- pIC50 (MOLT-4): 5.36
- pIC50 (KG-1): 5.61
- pIC50 (Rec1): 5.41
- pIC50 (JeKo-1): 5.82
- pIC50 (HL-60): 5.19
- pIC50 (RS4-11): 5.85
- pIC50 (WI-38): 4.78
- IC50 at 72 h [10]: 3270 nM
- inhibition [11]: Active
- inhibition [12]: Dose-Dependent Effect
- inhibition [13]: Dose-Dependent Effect
- inhibition [14]: Dose-Dependent Effect
- inhibition [15]: 100%
- inhibition [16]: 100%
- pIC50 (MV4-11): 7.82
- pIC50 (BaF3 [3]): 6.87
- pIC50 (BaF3 [4]): 7.40
- pIC50 (BaF3 [5]): 6.88
- pIC50 (BaF3 [6]): 8.10
- pIC50 (BaF3 [7]): 7.59

SMILES: CN1CCN(c2ccc(Nc3cc4c(cn3)ncc(=O)n4-c3ccc(N)cc3)nc2)CC1
- pIC50 [1]: 6.22
- pIC50 [2]: 6.19

SMILES: CC(=O)Nc1ccc(-n2c(=O)cnc3cnc(Nc4ccc(N5CCN(C)CC5)cc4)cc32)cc1
- pIC50 [1]: 5.57
- pIC50 [2]: 5.61

SMILES: CCN1CCN(c2cnc(Nc3cc4c(cn3)ncc(=O)n4-c3ccc(N)cc3)cc2C)CC1
- pIC50 [1]: 6.99
- pIC50 [2]: 7.29
- pIC50 (MOLM-13): 6.64
- pIC50 (MV4-11): 7.51

SMILES: Cc1cc(Nc2cc3c(cn2)ncc(=O)n3-c2ccc(N)cc2)ncc1N1CCN(C2CC2)CC1
- pIC50 [1]: 6.99
- pIC50 [2]: 7.42
- pIC50 (MOLM-13): 6.44
- pIC50 (MV4-11): 7.44

SMILES: Cc1cc(Nc2cc3c(cn2)ncc(=O)n3-c2ccc(N)cc2)ncc1N1CCN(S(C)(=O)=O)CC1
- pIC50 [1]: 6.91
- pIC50 [2]: 7.05
- pIC50 (MOLM-13): 6.16
- pIC50 (MV4-11): 7.17

SMILES: CN1CCN(c2ccc(Nc3cc4c(cn3)ncc(=O)n4-c3ccc(CN)cc3)nc2)CC1
- pIC50 [1]: 5.98
- pIC50 [2]: 6.09

SMILES: CC(=O)Nc1ccc(-n2c(=O)cnc3cnc(Nc4ccc(N5CCN(C)CC5)cn4)cc32)cc1
- pIC50 [1]: 6.03
- pIC50 [2]: 6.24

SMILES: CN1CCN(c2ccc(Nc3cc4c(cn3)ncc(=O)n4-c3cccc(N)c3)nc2)CC1
- pIC50 [1]: 6.04
- pIC50 [2]: 6.14

SMILES: Cc1cc(Nc2cc3c(cn2)ncc(=O)n3-c2ccc(N)cc2)ncc1N1CCN(C)CC1
- pIC50 [1]: 7.30
- pIC50 [2]: 7.39
- pIC50 (MOLM-13): 6.60
- pIC50 (MV4-11): 7.52

SMILES: CN1CCN(c2ccc(Nc3ccc4ncc(=O)n(-c5ccc(N)cc5)c4n3)cc2)CC1
- pIC50 [1]: 5.42
- pIC50 [2]: 5.18

SMILES: Cc1cc(Nc2cc3c(cn2)ncc(=O)n3-c2ccc(N)cc2)ncc1N1C[C@@H](C)N[C@@H](C)C1
- pIC50 [1]: 7.07
- pIC50 [2]: 7.48
- pIC50 (MOLM-13): 6.72
- pIC50 (MV4-11): 7.62
- pIC50 (BaF3 [3]): 6.17
- pIC50 (BaF3 [4]): 6.59
- pIC50 (BaF3 [5]): 6.16
- pIC50 (BaF3 [6]): 7.15
- pIC50 (BaF3 [7]): 6.77

SMILES: CN1CCN(c2ccc(Nc3cc4c(cn3)ncc(=O)n4-c3ccc(NS(C)(=O)=O)cc3)nc2)CC1
- pIC50 [1]: 6.07
- pIC50 [2]: 6.16

SMILES: Cc1cc(Nc2cc3c(cn2)ncc(=O)n3-c2ccc(N)cc2)ncc1N1CCC(O)CC1
- pIC50 [1]: 6.71
- pIC50 [2]: 6.81
